# Source: patent publication US9790207B2, “Pan-genomic inhibitors of NS5A protein encoded by HCV, pharmaceutical compositions, intermediates for inhibitor synthesis, and their synthesis and application methods” (priority 2015, dated 2017)
# Counter-ions that a name gives are not always drawn. Like-named read-outs stand apart in the source and are kept apart here.
# How the values were obtained:
# [1] = test system: HCV gT1b replicon; experiment: HCV replicon assay, gT1b; format: cell-based, Hepatitis C virus (HCV); details: Hepatitis C virus, GT1B, Huh-7, Huh7 replicon cells, mean value
# Method: (§1) The HCV replicon assay was used to determine the antiviral activity of compounds of general formula 2 (test compounds). The test cell line used in the HCV Replicon Assay was the human hepatoma cell line Huh7 incorporating the HCV replicons synthesized by an outside vendor.
# (§2) 96-well plates were seeded with cells at a density of 7.5×10^3 cells per well in 50 μl of assay media. The compound stock solution was made up freshly in an assay medium (DMEM 1×, Cellgro; cat. #10-013-CV) as a 2× stock. A total of 11 serial 3-fold dilutions of test compounds were prepared from the 2× stock in the assay media ranging from 20 nM-0.2 pM final concentrations. At least 4 hours after seeding the cells, compound treatment was initiated by adding 50 μl of compound dilution to the plates. The final concentrations of compound therefore ranged from 10 nM to 0.1 pM when diluted 1:1 in culture media. The final DMSO concentration was 0.5%. Cells and inhibitors were incubated for 3 days at 37° C./5% CO2. The media was removed from the plates by gentle tapping. The cells were fixed with 100 μl 1:1 acetone:methanol for 1 minute, washed three times with PBS buffer, and then blocked with 150 μl/well 10% Fetal Bovine Serum (FBS) in PBS for 1 hour at room temperature. The cells were then washed three times with PBS buffer and incubated with 100 μl/well anti-hepatitis C core mAb (Affinity BioReagents; cat. # MA1-080, 1 mg/ml stock diluted 1:4,000 in 10% FBS-PBS) for 2 hours at 37° C. Then, the cells were washed three times with PBS and incubated with 100 μl/well HRP-Goat Anti-Mouse antibody (diluted 1:3.500 in 10% FBS-PBS) for 1 hour at 37° C. The cells were then washed three times with PBS and developed with an OPD solution, 100 μl/well (1 OPD tablet+12 ml citrate/phosphate buffer+5 μl 30% H2O2 per plate), for 30 minutes in the dark at room temperature. The reaction was stopped with 2N H2SO4 (100 μl/well), and the absorbance was measured at A490 X on a Victor^3 V 1420 multilabel counter (Perkin Elmer).
# [2] = test system: HCV gT1a replicon; experiment: HCV replicon assay, gT1a; format: cell-based, Hepatitis C virus (HCV); details: Hepatitis C virus, GT1A, Huh-7; Huh7 replicon cells; mean
# Method: as §1, §2
# [3] = test system: HCV gT2a replicon; experiment: HCV replicon assay, gT2a; format: cell-based, Hepatitis C virus (HCV); details: Hepatitis C virus, GT2A, Huh-7; Huh7 replicon cells; mean
# Method: as §1, §2
# [4] = test system: HCV gT3a replicon; experiment: HCV replicon assay, gT3a; format: cell-based, Hepatitis C virus (HCV); details: Hepatitis C virus, GT3A
# Method: as §1, §2
# [5] = test system: HCV gT4a replicon; experiment: HCV replicon assay, gT4a; format: cell-based, Hepatitis C virus (HCV); details: Hepatitis C virus, GT4A, Huh-7, read-out: gT4a, EC50 (pM) mean
# Method: as §1, §2
# [6] = test system: HCV gT5a replicon; experiment: HCV replicon assay, gT5a; format: cell-based, Hepatitis C virus (HCV); details: Hepatitis C virus, GT5A, Huh-7, read-out: gT5a, EC50 (pM) mean
# Method: as §1, §2
# [7] = Cytotoxicity, cell viability by ATPLite Kit; format: cell-based, human; details: human, Huh7 cells (human hepatoma cell line), 10% FBS, maximal inhibition, read-out: Cytotox gT1b 10% FBS max. inh.
# Method: The cytotoxicity of the test compounds was studied in parallel using the same cell line, Huh7. Cell viability was determined using the ATPLite Kit (Perkin-Elmer, Boston, USA), according to manufacturer's instructions. 96-well black/transparent bottom plates were seeded with cells at a density of 7.5×10^3 cells per well in 50 μl medium. After 18 hours, compound treatment was initiated by adding 50 μl of compound dilution into the plates. Each compound dilution was tested in triplicates. The cells and inhibitors were then incubated for 96 hours at 37° C./5% CO2. The plates were washed twice with PBS (0.2 ml/well), and then lysed by adding lysis buffer, 0.05 ml/well (all reagents were included with the ATPLite Kit). After rocking for 5 min on a rocking platform, substrate buffer was added (0.05 ml/well). After additional 5-min incubation, the plates were kept in dark for 10 min, and the luminescence was read using TopCount NXT (Packard, Perkin Elmer). CC50 values for all test compounds were determined using XLfit 4.1 software (Table 2).
# [8] = 10% FBS, read-out: gT1b 10% FBS, EC50 (pM) mean
# [9] = 40% NHS, read-out: gT1b 40% NHS, EC50 (pM) mean
# [10] = Huh-7, Huh7 replicon cells, mean, read-out: gT3a, EC50 (pM) mean
smiles,measurement,setting,value
"COC(=O)N[C@H](C(=O)N1CCC[C@H]1c1ncc(-c2cc(F)c(C#CC#Cc3cnc([C@@H]4CCCN4C(=O)[C@H](NC(=O)OC)c4ccccc4)[nH]3)c(-c3ccccc3)c2)[nH]1)C(C)C [2(17)•2HCl, [(S)-1-((S)-2-{5-[5-Fluoro-6-(4-{2-[(S)-1-((R)-2-methoxycarbonylamino-2-phenyl-acetyl)-pyrrolidin-2-yl]-3H-imidazol-4-yl}-buta-1,3-diynyl)-biphenyl-3-yl]-1H-imidazol-2-yl}-pyrrolidine-1-carbonyl)-2-methyl-propyl]-carbamic acid methyl ester dihydrochloride]",EC50,[1]; [8],1.36 pM
same,EC50,[1]; [9],9.18 pM
same,EC50,[2],50.8 pM
same,EC50,[3],5 pM
same,EC50,[4]; [10],20.1 pM
same,EC50,[5],11.8 pM
same,EC50,[6],26 pM
same,inhibition at 96 h,[7],22%
"COC(=O)N[C@H](C(=O)N1CCC[C@H]1c1ncc(-c2cc(C)c(C#CC#Cc3cnc([C@@H]4CCCN4C(=O)[C@H](NC(=O)OC)c4ccccc4)[nH]3)c(-c3ccccc3)c2)[nH]1)C(C)C [2(18)•2HCl, [(S)-1-((S)-2-{5-[6-(4-{2-[(S)-1-((R)-2-Methoxycarbonylamino-2-phenyl-acetyl)-pyrrolidin-2-yl]-3H-imidazol-4-yl}-buta-1,3-diynyl)-5-methyl-biphenyl-3-yl]-1H-imidazol-2-yl}-pyrrolidine-1-carbonyl)-2-methyl-propyl]-carbamic acid methyl ester dihydrochloride]",EC50,[1]; [8],1.89 pM
same,EC50,[1]; [9],10.9 pM
same,EC50,[2],124 pM
same,EC50,[3],3 pM
same,EC50,[4]; [10],26 pM
same,EC50,[5],9.6 pM
same,EC50,[6],19.2 pM
same,inhibition at 96 h,[7],12%
"COC(=O)N[C@H](C(=O)N1CCC[C@H]1c1ncc(-c2ccc(C#CC#Cc3cnc([C@@H]4CCCN4C(=O)[C@H](NC(=O)OC)c4ccccc4)[nH]3)c(Oc3ccccc3)c2)[nH]1)C(C)C [2(19)•2HCl, [(S)-1-((S)-2-{5-[4-(4-{2-[(S)-1-((R)-2-Methoxycarbonylamino-2-phenyl-acetyl)-pyrrolidin-2-yl]-3H-imidazol-4-yl}-buta-1,3-diynyl)-3-phenoxy-phenyl]-1H-imidazol-2-yl}-pyrrolidine-1-carbonyl)-2-methyl-propyl]-carbamic acid methyl ester dihydrochloride]",EC50,[1]; [8],1.53 pM
same,EC50,[1]; [9],8.41 pM
same,EC50,[2],214 pM
same,EC50,[3],12.6 pM
same,EC50,"[4]; Huh-7, read-out: gT3a, EC50 (pM) mean, Huh7 replicon cells",40.3 pM
same,EC50,[5],6 pM
same,EC50,[6],18.8 pM
same,inhibition at 96 h,[7],38%
"COC(=O)N[C@H](C(=O)N1CCC[C@H]1c1ncc(-c2ccc(C#CC#Cc3cnc([C@@H]4CCCN4C(=O)[C@H](NC(=O)OC)c4ccccc4)[nH]3)c(N(C)c3ccccc3)c2)[nH]1)C(C)C [2(21)•2HCl, [(S)-1-((S)-2-{5-[4-(4-{2-[(S)-1-((R)-2-Methoxycarbonylamino-2-phenyl-acetyl)-pyrrolidin-2-yl]-3H-imidazol-4-yl}-buta-1,3-diynyl)-3-(methyl-phenyl-amino)-phenyl]-1H-imidazol-2-yl}-pyrrolidine-1-carbonyl)-2-methyl-propyl]-carbamic acid methyl ester trihydrochloride]",EC50,[1]; [8],1.79 pM
same,EC50,[1]; [9],14.2 pM
same,EC50,[2],72 pM
same,EC50,[3],10.6 pM
same,EC50,[4]; [10],35.1 pM
same,EC50,[5],11 pM
same,EC50,[6],26.6 pM
same,inhibition at 96 h,[7],14%
"COC(=O)N[C@H](C(=O)N1CCC[C@H]1c1ncc(-c2ccc(-c3ccc(-c4cnc([C@@H]5CCCN5C(=O)[C@H](NC(=O)OC)c5ccccc5)[nH]4)cc3)c(-c3ccccc3)c2)[nH]1)C(C)C [2(22)•2HCl, ((S)-1-{(S)-2-[5-(4-{2-[(S)-1-((R)-2-Methoxycarbonylamino-2-phenyl-acetyl)-pyrrolidin-2-yl]-3H-imidazol-4-yl}-[1,1′;2′,1″]terphenyl-4′-yl)-1H-imidazol-2-yl]-pyrrolidine-1-carbonyl}-2-methyl-propyl)-carbamic acid methyl ester dihydrochloride]",EC50,[1]; [8],2.58 pM
same,EC50,[1]; [9],38.8 pM
same,EC50,[2],117 pM
same,EC50,[3],3.9 pM
same,EC50,[4]; [10],16.6 pM
same,EC50,[5],9.4 pM
same,EC50,[6],31.3 pM
same,inhibition at 96 h,[7],30%
"COC(=O)N[C@H](C(=O)N1CCC[C@H]1c1ncc(-c2ccc(-c3ccc(-c4cnc([C@@H]5CCCN5C(=O)[C@H](NC(=O)OC)c5ccccc5)[nH]4)cc3)c(Oc3ccccc3)c2)[nH]1)C(C)C [2(23)•2HCl, ((S)-1-{(S)-2-[5-(4′-{2-[(S)-1-((R)-2-Methoxycarbonylamino-2-phenyl-acetyl)-pyrrolidin-2-yl]-3H-imidazol-4-yl}-2-phenoxy-biphenyl-4-yl)-1H-imidazol-2-yl]-pyrrolidine-1-carbonyl}-2-methyl-propyl)-carbamic acid methyl ester dihydrochloride]",EC50,[1]; [8],2.1 pM
same,EC50,[1]; [9],15.7 pM
same,EC50,[2],154 pM
same,EC50,[3],4.1 pM
same,EC50,[4]; [10],10.3 pM
same,EC50,[5],5.4 pM
same,EC50,[6],13.6 pM
same,inhibition at 96 h,[7],27%
"COC(=O)N[C@H](C(=O)N1CCC[C@H]1c1ncc(-c2ccc(-c3ccc(-c4cnc([C@@H]5CCCN5C(=O)[C@H](NC(=O)OC)c5ccccc5)[nH]4)cc3)c(Sc3ccccc3)c2)[nH]1)C(C)C [2(24)•2HCl, ((S)-1-{(S)-2-[5-(4′-{2-[(S)-1-((R)-2-Methoxycarbonylamino-2-phenyl-acetyl)-pyrrolidin-2-yl]-3H-imidazol-4-yl}-2-phenylsulfanyl-biphenyl-4-yl)-1H-imidazol-2-yl]-pyrrolidine-1-carbonyl}-2-methyl-propyl)-carbamic acid methyl ester dihydrochloride]",EC50,[1]; [8],1.33 pM
same,EC50,[1]; [9],8.02 pM
same,EC50,[2],557 pM
same,EC50,[3],4 pM
same,EC50,[4]; [10],28.5 pM
same,EC50,[5],8.3 pM
same,EC50,[6],21.6 pM
same,inhibition at 96 h,[7],42%
"COC(=O)N[C@H](C(=O)N1CCC[C@H]1c1ncc(C#CC#Cc2ccc(-c3cnc([C@@H]4CCCN4C(=O)[C@H](NC(=O)OC)c4ccccc4)[nH]3)cc2-c2ccccc2)[nH]1)C(C)C [2(30)•2HCl, [(S)-1-((S)-2-{5-[4-(5-{2-[(S)-1-((R)-2-Methoxycarbonylamino-2-phenyl-acetyl)-pyrrolidin-2-yl]-3H-imidazol-4-yl}-biphenyl-2-yl)-buta-1,3-diynyl]-1H-imidazol-2-yl}-pyrrolidine-1-carbonyl)-2-methyl-propyl]-carbamic acid methyl ester dihydrochloride]",EC50,[1]; [8],2.1 pM
same,EC50,[1]; [9],25.3 pM
same,inhibition at 96 h,[7],33%
